Tests used:
[1] = test system: patients with hepatic encephalopathy; set-up: method as in PMID 33894327; conditions: humans; cited from earlier work
[2] = test system: male Wistar rats; experiment: Morris water maze (MWM) learning and spatial memory; type: in vivo, rat; conditions: GR3027 alone 11 mg/kg i.v.
Procedure: Animals: Male Wistar rats were used to study the effect of AP on learning and spatial memory (Scanbur BK, Sweden). The rats were marked on the tail with a permanent spray (Porcimark™) for identification. A 12/12 h light/dark cycle was used (lights off at 18.00 h), food and water were available ad libitum, and the housing room temperature was kept at 22–23 °C. Animal testing was performed during the light part of the day. After arrival at the animal facility, the handling of all rats was performed for two weeks, including habituation to all relevant experimental procedures. […]
Spatial memory: Spatial memory was assessed using the Morris water maze (MWM), as previously described in detail, and in brief as follows. […] MWM parameters (latency, path, swimming speed, floating, and thigmotaxis) were monitored and quantified using the computer tracking system Menu 2020 (HVS Image, UK). […]
Substances and treatments: AP (3α-OH-5α-pregnan-20-one; 2.0 mg/mL; Umecrine AB, Sweden) and GR3027 (3α-ethynyl-3β-hydroxyl-5α-androstan-17-oxime; 2.0 mg/mL; Umecrine Cognition AB, Stockholm, Sweden) were dissolved in 10% 2-hydroxypropyl-beta-cyclodextrin (β-CD; Sigma, St. Louis, MO, USA) using ultrasound. The various combination treatments were then prepared by mixing these solutions in calculated proportions (Table 1). […]

Structure (SMILES): C#C[C@]1(O)CC[C@@]2(C)[C@@H](CC[C@@H]3[C@@H]2CC[C@]2(C)/C(=N/O)CC[C@@H]32)C1 [GR3027, 3α-ethynyl-3β-hydroxyl-5α-androstan-17-oxime]
- Effect in patients with hepatic encephalopathy [1]: improves EEG, vigilance, and cognition
- Swim speed vs groups treated with AP or AP:GR3027 combinations ([2]; p < 0.05): lower
- Swim speed vs vehicle group ([2]; p > 0.05): no different

— PMC10604444, “Extra-Synaptic GABAA Receptor Potentiation and Neurosteroid-Induced Learning Deficits Are Inhibited by GR3027, a GABAA Modulating Steroid Antagonist” (Biomolecules, 2023)
